Where two headings read alike, the source gives them in different places.
Test system: Phytophthora infestans
Format: in vivo
Conditions: individual active compound, tomato leaves, infected next day, assessed after 6 days

Row | Compound | Efficacy in % of the untreated control (0.25 ppm in the spray liquor) [%] | Efficacy in % of the untreated control (16 ppm in the spray liquor) [%] | Efficacy in % of the untreated control (1 ppm in the spray liquor) [%]
1 | CC1CCN(c2c(-c3c(F)cc(F)cc3F)c(Cl)nc3ncnn23)CC1 [II, 5-chloro-7-(4-methylpiperidin-1-yl)-6-(2,4,6-trifluorophenyl)-[1,2,4]tri-azolo[1,5-a]pyrimidine] | 0 | 0 | 
2 | CNC(=O)/C(=N/OC)c1ccccc1COc1cc(C)ccc1C [I, dimoxystrobin] | 0 |  | 56
3 | C[C@H](Nc1c(-c2c(F)cc(F)cc2F)c(Cl)nc2ncnn12)C(F)(F)F [B] | 0 | 0 | 
4 | CC1CCN(c2c(-c3c(F)cccc3Cl)c(Cl)nc3ncnn23)CC1 [A] | 0 | 0 | 

From US20060281766A1 (priority 2003, published 2006)
